From paper PMC6177011, “Idebenone and coenzyme Q10 are novel PPARα/γ ligands, with potential for treatment of fatty liver diseases” (Disease Models & Mechanisms, 2018)

Experiments:
Format in all cases: cell-based
PPARα = molecular target: T1, PPARα (Homo sapiens, UniProt Q07869); test: co-purification with purified LBD and LC-MS; EC50 from GAL4-LBD luciferase reporter in HEK293
T1 construct: gene PPARA; His-tagged PPARα LBD
T1 sequence (Q07869 196-468 limits assumed): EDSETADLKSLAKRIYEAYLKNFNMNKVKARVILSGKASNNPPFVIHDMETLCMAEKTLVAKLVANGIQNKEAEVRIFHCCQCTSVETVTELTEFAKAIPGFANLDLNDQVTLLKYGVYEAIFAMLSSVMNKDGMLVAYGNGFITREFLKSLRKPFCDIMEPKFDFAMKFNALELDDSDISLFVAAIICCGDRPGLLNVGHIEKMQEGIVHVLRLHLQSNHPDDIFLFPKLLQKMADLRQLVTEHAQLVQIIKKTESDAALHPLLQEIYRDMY

hPPARδ/β = molecular target: T2, hPPARδ/β (Homo sapiens, UniProt Q03181); test: GAL4-LBD UAS-luciferase reporter in HEK293
T2 construct: gene PPARD; GAL4-hPPARδ LBD fusion
T2 sequence (Q03181 171-441 limits assumed): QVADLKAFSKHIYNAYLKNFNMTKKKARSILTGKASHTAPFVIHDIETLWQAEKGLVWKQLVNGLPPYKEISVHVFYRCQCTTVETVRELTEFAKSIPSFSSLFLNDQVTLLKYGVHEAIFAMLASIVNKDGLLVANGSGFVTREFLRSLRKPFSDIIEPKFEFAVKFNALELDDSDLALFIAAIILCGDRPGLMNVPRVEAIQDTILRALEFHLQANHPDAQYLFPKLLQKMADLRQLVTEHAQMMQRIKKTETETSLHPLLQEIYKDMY

PPARγ = molecular target: T3, PPARγ (Homo sapiens, UniProt P37231); test: antagonism of the human PPARγ LBD ligand-trap GFP reporter in transgenic zebrafish
T3 construct: gene PPARG; PPARγ (aa 189-477) LBD fusion
T3 sequence (P37231 217-505): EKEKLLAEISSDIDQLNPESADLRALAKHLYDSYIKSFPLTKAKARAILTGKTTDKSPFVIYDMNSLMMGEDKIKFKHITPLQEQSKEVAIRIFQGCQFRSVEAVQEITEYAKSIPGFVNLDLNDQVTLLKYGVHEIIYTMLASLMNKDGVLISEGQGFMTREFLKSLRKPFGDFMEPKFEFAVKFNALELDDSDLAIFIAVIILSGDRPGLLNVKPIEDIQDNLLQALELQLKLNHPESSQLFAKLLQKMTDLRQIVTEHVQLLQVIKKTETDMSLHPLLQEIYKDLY

## COC1=C(OC)C(=O)C(CCCCCCCCCCO)=C(C)C1=O [idebenone]
PPARα
  EC50: 2500 nM

## O=C(O)COc1ccc(SCC=C(c2ccc(Br)cc2)c2ccc(Br)cc2)cc1Cl [CAY10592]
hPPARδ/β
  EC50: 12.8 nM

## O=C(Nc1ccccc1)c1cc([N+](=O)[O-])ccc1Cl [GW9662]
PPARγ
  antagonism of the human PPARγ LBD ligand-trap GFP reporter in transgenic zebrafi: The GW9662 suicide antagonist blocks agonist activity of rosiglitazone and idebenone, but not of RA
